Measured values as given in patent US10344060B2 (priority 2013, dated 2019).
Where “and” joins values, the source holds several entries; their conditions need not be identical. Equal values may be shown once. Read-outs that look alike come from different tables or passages of the source.

Legend:
Assay in all cases: cell-based
[1] = target: T1, hNav1.5 (Homo sapiens, UniProt Q14524); details: IonWorks Quattro; Table 9; read-out: IC50 (μM) Nav1.5
[2] = target: T2, hNav1.4 (Homo sapiens, UniProt P35499); format: cell-based; details: Table 9; for IC50: IonWorks Quattro, read-out: IC50 (μM) Nav1.4; for Nav1.4/Nav1.7: ratio of IonWorks Quattro IC50 values
[3] = target: hNav1.3 (Homo sapiens, UniProt Q9NY46); details: IonWorks Quattro; Table 9; read-out: IC50 (μM) Nav1.3
[4] = target: T1, hNav1.5; details: for Nav1.5/Nav1.7: ratio of PX tonic IC50 values; for IC50: read-out: PX hNav1.5 Tonic IC50
[5] = target: T2, hNav1.4; format: cell-based; details: for Nav1.4/Nav1.7: ratio of PX tonic IC50 values; for IC50: read-out: PX hNav1.4 Tonic IC50
[6] = target: hNav1.7 (Homo sapiens, UniProt Q15858); format: cell-based; details: for IC50: read-out: PX hNav1.7 Tonic IC50
[7] = target: hNav1.6 (Homo sapiens, UniProt Q9UQD0); format: cell-based; details: Table 15; for Nav1.6/Nav1.7: ratio of PX tonic IC50 values; for IC50: read-out: PX hNav1.6 Tonic IC50
[8] = ratio of PX tonic IC50 values, Table 11
[9] = Table 12, PatchXpress, tonic block

T2 sequence (P35499 whole entry): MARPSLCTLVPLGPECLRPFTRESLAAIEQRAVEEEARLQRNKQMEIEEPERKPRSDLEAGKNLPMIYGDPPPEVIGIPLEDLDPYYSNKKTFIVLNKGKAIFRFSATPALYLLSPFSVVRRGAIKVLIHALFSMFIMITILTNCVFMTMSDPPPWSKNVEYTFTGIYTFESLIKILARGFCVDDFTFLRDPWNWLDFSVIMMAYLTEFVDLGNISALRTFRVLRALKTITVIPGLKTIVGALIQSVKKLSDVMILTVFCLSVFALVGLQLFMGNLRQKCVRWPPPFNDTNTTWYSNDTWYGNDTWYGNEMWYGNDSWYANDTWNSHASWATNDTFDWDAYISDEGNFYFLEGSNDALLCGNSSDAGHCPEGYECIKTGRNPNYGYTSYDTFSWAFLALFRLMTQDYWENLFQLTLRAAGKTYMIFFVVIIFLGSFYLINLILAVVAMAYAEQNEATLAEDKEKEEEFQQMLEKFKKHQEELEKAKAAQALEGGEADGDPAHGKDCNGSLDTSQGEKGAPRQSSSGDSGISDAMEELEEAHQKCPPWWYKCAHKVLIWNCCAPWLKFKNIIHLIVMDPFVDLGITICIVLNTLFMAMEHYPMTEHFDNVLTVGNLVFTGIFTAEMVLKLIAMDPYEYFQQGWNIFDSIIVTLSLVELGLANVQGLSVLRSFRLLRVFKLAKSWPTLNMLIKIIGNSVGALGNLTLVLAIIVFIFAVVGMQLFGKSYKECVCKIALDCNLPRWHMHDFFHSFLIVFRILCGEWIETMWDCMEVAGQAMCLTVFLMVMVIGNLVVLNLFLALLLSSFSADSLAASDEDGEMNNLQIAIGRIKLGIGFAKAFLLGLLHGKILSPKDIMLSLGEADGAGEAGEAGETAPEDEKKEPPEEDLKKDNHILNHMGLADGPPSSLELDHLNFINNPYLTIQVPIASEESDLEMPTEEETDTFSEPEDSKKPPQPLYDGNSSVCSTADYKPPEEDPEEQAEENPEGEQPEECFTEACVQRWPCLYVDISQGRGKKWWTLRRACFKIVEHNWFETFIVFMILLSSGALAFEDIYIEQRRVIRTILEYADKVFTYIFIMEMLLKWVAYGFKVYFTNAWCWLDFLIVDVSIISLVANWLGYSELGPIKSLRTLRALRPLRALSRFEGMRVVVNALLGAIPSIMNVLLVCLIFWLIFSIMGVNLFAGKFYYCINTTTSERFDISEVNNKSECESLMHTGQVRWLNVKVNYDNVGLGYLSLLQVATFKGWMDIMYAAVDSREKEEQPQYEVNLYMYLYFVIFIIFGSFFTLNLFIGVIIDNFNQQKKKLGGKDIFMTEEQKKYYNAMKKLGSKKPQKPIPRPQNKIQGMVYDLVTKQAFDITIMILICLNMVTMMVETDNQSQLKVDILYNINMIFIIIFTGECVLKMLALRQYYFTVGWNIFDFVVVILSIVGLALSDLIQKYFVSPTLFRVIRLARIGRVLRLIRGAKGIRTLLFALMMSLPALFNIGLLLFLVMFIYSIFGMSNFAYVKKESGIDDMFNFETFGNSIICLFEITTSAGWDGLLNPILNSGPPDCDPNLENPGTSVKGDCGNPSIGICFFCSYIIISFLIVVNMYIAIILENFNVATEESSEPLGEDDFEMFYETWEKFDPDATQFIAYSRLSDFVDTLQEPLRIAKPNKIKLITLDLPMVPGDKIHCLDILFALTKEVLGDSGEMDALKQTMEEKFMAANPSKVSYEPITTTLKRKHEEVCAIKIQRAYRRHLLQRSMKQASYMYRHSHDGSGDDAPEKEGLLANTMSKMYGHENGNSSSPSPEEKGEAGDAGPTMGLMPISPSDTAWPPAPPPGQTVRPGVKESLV
Sequence of hNav1.3 (Q9NY46 whole entry): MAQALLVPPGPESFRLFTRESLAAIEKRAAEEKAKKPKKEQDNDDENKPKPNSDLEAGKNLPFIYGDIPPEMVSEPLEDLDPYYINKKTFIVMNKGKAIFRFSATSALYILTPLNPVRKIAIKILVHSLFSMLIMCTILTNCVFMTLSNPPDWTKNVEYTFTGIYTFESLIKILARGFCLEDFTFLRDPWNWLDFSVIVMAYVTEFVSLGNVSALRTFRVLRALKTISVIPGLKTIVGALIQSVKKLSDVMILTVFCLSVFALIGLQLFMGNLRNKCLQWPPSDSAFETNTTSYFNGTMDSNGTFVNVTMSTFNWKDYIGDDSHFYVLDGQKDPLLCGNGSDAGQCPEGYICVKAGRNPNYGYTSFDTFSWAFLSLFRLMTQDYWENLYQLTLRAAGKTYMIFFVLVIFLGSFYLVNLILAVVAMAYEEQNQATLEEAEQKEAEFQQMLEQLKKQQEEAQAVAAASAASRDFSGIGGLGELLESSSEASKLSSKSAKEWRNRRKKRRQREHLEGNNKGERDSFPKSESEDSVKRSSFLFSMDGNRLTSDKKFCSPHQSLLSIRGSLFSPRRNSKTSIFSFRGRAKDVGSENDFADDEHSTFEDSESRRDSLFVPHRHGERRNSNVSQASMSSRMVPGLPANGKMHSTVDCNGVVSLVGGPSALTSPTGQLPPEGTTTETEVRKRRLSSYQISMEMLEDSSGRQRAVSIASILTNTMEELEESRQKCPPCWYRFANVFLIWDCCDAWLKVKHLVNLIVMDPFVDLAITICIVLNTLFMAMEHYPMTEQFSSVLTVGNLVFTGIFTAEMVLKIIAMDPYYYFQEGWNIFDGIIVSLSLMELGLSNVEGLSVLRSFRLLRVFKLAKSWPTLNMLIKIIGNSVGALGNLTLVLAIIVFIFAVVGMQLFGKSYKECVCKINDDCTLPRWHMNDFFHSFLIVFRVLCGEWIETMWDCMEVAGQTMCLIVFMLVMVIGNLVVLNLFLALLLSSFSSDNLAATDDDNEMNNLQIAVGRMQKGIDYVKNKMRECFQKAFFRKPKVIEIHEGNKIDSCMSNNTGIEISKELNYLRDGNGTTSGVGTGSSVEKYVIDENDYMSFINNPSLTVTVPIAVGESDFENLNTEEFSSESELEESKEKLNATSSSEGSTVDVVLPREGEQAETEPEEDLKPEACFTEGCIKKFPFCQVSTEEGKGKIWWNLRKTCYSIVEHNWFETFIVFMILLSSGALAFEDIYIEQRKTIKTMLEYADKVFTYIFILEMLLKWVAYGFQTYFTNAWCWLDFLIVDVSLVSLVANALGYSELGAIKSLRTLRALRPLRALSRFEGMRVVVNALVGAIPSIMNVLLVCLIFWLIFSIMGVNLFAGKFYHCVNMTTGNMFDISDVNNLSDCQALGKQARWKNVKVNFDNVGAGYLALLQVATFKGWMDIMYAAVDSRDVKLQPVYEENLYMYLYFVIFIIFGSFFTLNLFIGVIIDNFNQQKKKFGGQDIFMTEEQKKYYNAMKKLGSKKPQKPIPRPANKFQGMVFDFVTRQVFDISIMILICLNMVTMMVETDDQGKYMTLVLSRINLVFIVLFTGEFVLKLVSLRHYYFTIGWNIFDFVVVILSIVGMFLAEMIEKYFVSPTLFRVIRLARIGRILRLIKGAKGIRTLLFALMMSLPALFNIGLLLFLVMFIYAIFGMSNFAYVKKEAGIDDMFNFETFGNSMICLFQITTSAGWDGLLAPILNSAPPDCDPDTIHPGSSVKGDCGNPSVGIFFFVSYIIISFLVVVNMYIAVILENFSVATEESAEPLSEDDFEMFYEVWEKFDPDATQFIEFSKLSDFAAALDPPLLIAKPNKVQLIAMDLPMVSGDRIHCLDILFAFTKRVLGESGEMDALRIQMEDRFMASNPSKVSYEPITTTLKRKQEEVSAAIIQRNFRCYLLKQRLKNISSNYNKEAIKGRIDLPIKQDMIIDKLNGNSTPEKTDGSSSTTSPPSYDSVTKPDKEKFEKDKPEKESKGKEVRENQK

## CCCC[C@@H]1NC(=O)[C@H](Cc2c[nH]c3ccccc23)NC(=O)[C@H](CCCCN)NC(=O)[C@H](CCC(N)=O)NC(=O)[C@@H](NC(=O)[C@@H](N)Cc2cn(CCCOCCOCCOCCOCCOCCOCCOCCOCCOCCOCCN)nn2)CSSC[C@@H]2NC(=O)[C@@H]3CSSC[C@@H](C(=O)N[C@@H](CCCNC(=N)N)C(=O)N[C@@H](CCCCN)C(=O)N[C@H](C(=O)N[C@H](C(N)=O)[C@@H](C)CC)[C@@H](C)CC)NC(=O)[C@H](Cc4c[nH]c5ccccc45)NC(=O)[C@H](CC(C)C)NC(=O)[C@H](CCCCN)NC(=O)[C@H](CSSC[C@H](NC(=O)[C@H]([C@@H](C)O)NC(=O)[C@H](Cc4c[nH]c5ccccc45)NC1=O)C(=O)N[C@@H](CC(=O)O)C(=O)N[C@@H](CO)C(=O)N[C@@H](CCCCN)C(=O)N[C@@H](CCCNC(=N)N)C(=O)N[C@@H](C)C(=O)N3)NC(=O)[C@H](CCCNC(=N)N)NC(=O)[C@H](CC(C)C)NC(=O)CNC(=O)[C@H](CCC(=O)O)NC2=O [compound 248]
[1]
  IC50: > 7 µM
[2]
  IC50: 0.39 µM and 0.45 µM
  Nav1.4/Nav1.7: 4 and 3
[3]
  IC50: 0.16 µM and 0.13 µM
[4]; Table 13
  Nav1.5/Nav1.7: 946
[4]
  IC50: 950 nM
[5]; Table 13
  Nav1.4/Nav1.7: 15
[5]
  IC50: 15 nM
[6]
  IC50: 1 nM

## CCCC[C@@H]1NC(=O)[C@H](Cc2c[nH]c3ccccc23)NC(=O)[C@H](CCCCN)NC(=O)[C@H](CCC(N)=O)NC(=O)[C@@H](NC(=O)[C@H](Cc2ccc(O)cc2)NC(=O)[C@@H](N)CCC(=O)O)CSSC[C@@H]2NC(=O)[C@@H]3CSSC[C@@H](C(=O)N[C@@H](CCCNC(=N)N)C(=O)N[C@@H](CCCCN)C(=O)N[C@@H](CCC(=O)O)C(=O)N[C@H](C(N)=O)[C@@H](C)CC)NC(=O)[C@H](Cc4c[nH]c5ccccc45)NC(=O)[C@H](CC(C)C)NC(=O)[C@H](CCCCN)NC(=O)[C@H](CSSC[C@H](NC(=O)[C@H]([C@@H](C)O)NC(=O)[C@H](Cc4c[nH]c5ccccc45)NC1=O)C(=O)N[C@@H](CC(=O)O)C(=O)N[C@@H](CO)C(=O)N[C@@H](CCCCN)C(=O)N[C@@H](CCCNC(=N)N)C(=O)N[C@@H](C)C(=O)N3)NC(=O)[C@H](CCCNC(=N)N)NC(=O)[C@H](CC(C)C)NC(=O)CNC(=O)[C@H](CCC(=O)O)NC2=O [compound 708]
[7]
  Nav1.6/Nav1.7: 682
  IC50: 522 nM
[4]; PatchXpress, tonic, Table 11
  IC50: 7600 nM
[5]; PatchXpress, tonic, Table 11
  IC50: 99.2 nM
[6]; PatchXpress, tonic, Table 11
  IC50: 0.765 nM
[6]; [8]
  Nav1.4/Nav1.7: 130
  Nav1.5/Nav1.7: 9941

## CCCC[C@@H]1NC(=O)[C@H](Cc2c[nH]c3ccccc23)NC(=O)[C@H](CCCCN)NC(=O)[C@H](CCC(N)=O)NC(=O)[C@@H](NC(=O)[C@@H](N)Cc2ccc(O)cc2)CSSC[C@@H]2NC(=O)[C@@H]3CSSC[C@@H](C(=O)N[C@@H](CCCNC(=N)N)C(=O)N[C@@H](CCCCN)C(=O)N[C@H](C(=O)N[C@H](C(N)=O)[C@@H](C)CC)[C@@H](C)CC)NC(=O)[C@H](Cc4c[nH]c5ccccc45)NC(=O)[C@H](CC(C)C)NC(=O)[C@H](CCCCN)NC(=O)[C@H](CSSC[C@H](NC(=O)[C@H]([C@@H](C)O)NC(=O)[C@H](Cc4c[nH]c5ccccc45)NC1=O)C(=O)N[C@@H](CC(=O)O)C(=O)N[C@@H](Cc1cn(CCCOCCOCCOCCOCCOCCOCCOCCOCCOCCOCCN)nn1)C(=O)N[C@@H](CCCCN)C(=O)N[C@@H](CCCNC(=N)N)C(=O)N[C@@H](C)C(=O)N3)NC(=O)[C@H](CCCNC(=N)N)NC(=O)[C@H](CC(C)C)NC(=O)CNC(=O)[C@H](CCC(=O)O)NC2=O [compound 256]
[1]
  IC50: > 5 µM
[2]
  IC50: 0.4 µM and 0.5 µM
  Nav1.4/Nav1.7: 4
[3]
  IC50: 0.2 µM and 0.4 µM
[4]; Table 13
  Nav1.5/Nav1.7: 200
[4]
  IC50: 1860 nM
[5]; Table 13
  Nav1.4/Nav1.7: 3
[5]
  IC50: 27 nM
[6]
  IC50: 9.3 nM

## C#CC[C@@H]1NC(=O)[C@H](CCCNC(=N)N)NC(=O)[C@H](CCCCN)NC(=O)[C@H](CO)NC(=O)[C@H](CC(=O)O)NC(=O)[C@@H]2CSSC[C@@H]3NC(=O)[C@H](CCCNC(=N)N)NC(=O)[C@H](CC(C)C)NC(=O)CNC(=O)[C@H](CCC(=O)O)NC(=O)[C@H](CSSC[C@H](NC(=O)[C@@H](N)Cc4ccc(O)cc4)C(=O)N[C@@H](CCC(N)=O)C(=O)N[C@@H](CCCCN)C(=O)N[C@@H](Cc4c[nH]c5ccccc45)C(=O)N[C@@H](CCCC)C(=O)N[C@@H](Cc4c[nH]c5ccccc45)C(=O)N[C@@H]([C@@H](C)O)C(=O)N2)NC(=O)[C@H](CSSC[C@@H](C(=O)N[C@@H](CCCNC(=N)N)C(=O)N[C@@H](CCCCN)C(=O)N[C@H](C(=O)N[C@H](C(N)=O)[C@@H](C)CC)[C@@H](C)CC)NC(=O)[C@H](Cc2c[nH]c4ccccc24)NC(=O)[C@H](CC(C)C)NC(=O)[C@H](CCCCN)NC3=O)NC1=O [compound 283]
[2]
  Nav1.4/Nav1.7: 1
[4]; Table 12
  Nav1.5/Nav1.7: 2090
[5]; Table 12
  Nav1.4/Nav1.7: 17

## C#CC[C@H](N)C(=O)N[C@@H](CCC(=O)O)C(=O)N[C@H]1CSSC[C@@H]2NC(=O)[C@@H]3CSSC[C@@H](C(=O)N[C@@H](CCCNC(=N)N)C(=O)N[C@@H](CCCCN)C(=O)N[C@@H](CCC(=O)O)C(=O)N[C@H](C(N)=O)[C@@H](C)CC)NC(=O)[C@H](Cc4c[nH]c5ccccc45)NC(=O)[C@H](CC(C)C)NC(=O)[C@H](CCCCN)NC(=O)[C@H](CSSC[C@H](NC(=O)[C@H]([C@@H](C)O)NC(=O)[C@H](Cc4c[nH]c5ccccc45)NC(=O)[C@H](CCCC)NC(=O)[C@H](Cc4c[nH]c5ccccc45)NC(=O)[C@H](CCCCN)NC(=O)[C@H](CCC(N)=O)NC1=O)C(=O)N[C@@H](CC(=O)O)C(=O)N[C@@H](CO)C(=O)N[C@@H](CCCCN)C(=O)N[C@@H](CCCNC(=N)N)C(=O)N[C@@H](C)C(=O)N3)NC(=O)[C@H](CCCNC(=N)N)NC(=O)[C@H](CC(C)C)NC(=O)CNC(=O)[C@H](CCC(=O)O)NC2=O [compound 709]
[7]
  Nav1.6/Nav1.7: 518
  IC50: 584 nM
[4]; [9]
  IC50: > 1000 nM
[4]; Table 12
  Nav1.5/Nav1.7: >887
[5]; [9]
  IC50: 185 nM
[5]; Table 12
  Nav1.4/Nav1.7: 164
[6]; [9]
  IC50: 1.13 nM

## CCC[C@H](N)C(=O)N[C@@H](Cc1ccc(O)cc1)C(=O)N[C@H]1CSSC[C@@H]2NC(=O)[C@@H]3CSSC[C@@H](C(=O)N[C@@H](CCCNC(=N)N)C(=O)N[C@@H](CCCCN)C(=O)N[C@H](C(=O)N[C@H](C(N)=O)[C@@H](C)CC)[C@@H](C)CC)NC(=O)[C@H](Cc4c[nH]c5ccccc45)NC(=O)[C@H](CC(C)C)NC(=O)[C@H](CCCCN)NC(=O)[C@H](CSSC[C@H](NC(=O)[C@H]([C@@H](C)O)NC(=O)[C@H](Cc4c[nH]c5ccccc45)NC(=O)[C@H](CC(C)C)NC(=O)[C@H](Cc4c[nH]c5ccccc45)NC(=O)[C@H](CCCCN)NC(=O)[C@H](CCC(N)=O)NC1=O)C(=O)N[C@@H](CC(=O)O)C(=O)N[C@@H](CO)C(=O)N[C@@H](CCCCN)C(=O)N[C@@H](CCCNC(=N)N)C(=O)N[C@@H](CCCCNC(=O)[C@@H](N)Cc1cn(CCOCCOCCOCCOCCOCCOCCOCCOCCOCCOCCN)nn1)C(=O)N3)NC(=O)[C@H](CCCNC(=N)N)NC(=O)[C@H](CC(C)C)NC(=O)CNC(=O)[C@H](CCC(=O)O)NC2=O [compound 446]
[4]; Table 13
  Nav1.5/Nav1.7: 207
[4]
  IC50: 2410 nM
[5]; Table 13
  Nav1.4/Nav1.7: 11
[5]
  IC50: 128 nM
[6]
  IC50: 11.6 nM

## C#CC[C@H](N)C(=O)N[C@@H](Cc1ccc(O)cc1)C(=O)N[C@H]1CSSC[C@@H]2NC(=O)[C@@H]3CSSC[C@@H](C(=O)N[C@@H](CCCNC(=N)N)C(=O)N[C@@H](CCCCN)C(=O)N[C@@H](CCC(=O)O)C(=O)N[C@H](C(N)=O)[C@@H](C)CC)NC(=O)[C@H](Cc4c[nH]c5ccccc45)NC(=O)[C@H](CC(C)C)NC(=O)[C@H](CCCCN)NC(=O)[C@H](CSSC[C@H](NC(=O)[C@H]([C@@H](C)O)NC(=O)[C@H](Cc4c[nH]c5ccccc45)NC(=O)[C@H](CCCC)NC(=O)[C@H](Cc4c[nH]c5ccccc45)NC(=O)[C@H](CCCCN)NC(=O)[C@H](CCC(N)=O)NC1=O)C(=O)N[C@@H](CC(=O)O)C(=O)N[C@@H](CCC(=O)O)C(=O)N[C@@H](CCCCN)C(=O)N[C@@H](CCCNC(=N)N)C(=O)N[C@@H](C)C(=O)N3)NC(=O)[C@H](CCCNC(=N)N)NC(=O)[C@H](CC(C)C)NC(=O)CNC(=O)[C@H](CCC(=O)O)NC2=O [compound 714]
[7]
  Nav1.6/Nav1.7: 737
[4]; Table 12
  Nav1.5/Nav1.7: >6341
[5]; Table 12
  Nav1.4/Nav1.7: 241
